Measured values reported in patent publication US3950346A, “Novel process for producing 2-ketoethylbenzomorphan derivatives and salts thereof” (Sumitomo Chemical Company, Limited, priority 1972, dated 1976).
Like-named read-outs stand apart in the source and are kept apart here.

Legend:
[1] = Physical dependency test: abstinence syndrome (body weight decrease on the day after drug withdrawal following 4 weeks of administration); assay type: in vivo, rats (male, Wistar strain); parameters: key to Abstinence syndrome: +++: severe decrease (about 5% decrease); ++: moderate decrease; +: mild decrease; -: no decrease; conditions: for Abstinence syndrome: 20 mg/kg/day, subcutaneously twice a day for 4 weeks, body weight decrease on next day after withdrawal, male Wistar rats; for addiction in long term animal tests / physical dependency: result in words; for physical dependency: orally or subcutaneously to rats everyday for 4 weeks
Description: Known 6,7-benzomorphan derivatives such as 2'-hydroxy-2,5,9-trimethyl-6,7-benzomorphan [cf. […] On account of this addiction liability, these analgesics are severely restricted in a therapeutic use.
Note: Groups of male rats of Wistar strain (body weight, 150 g at the beginning of the test), each group consisting of 20 male rats, were subcutaneously given the test compound twice a day for 4 consecutive weeks. On the next day after drug withdrawal, the body weight was measured. The symbols have the following meanings: +++, severe decrease (about 5% decrease); ++, moderate decrease; +, mild decrease; -, no decrease.

[2] = Subcutaneous writhing test (antagonism of the syndrome produced by intraperitoneal 0.6% aqueous acetic acid); assay type: in vivo; conditions: mice, 20 minutes before acetic acid, Litchfield-Wilcoxon's method
Description: […]. Note: The test was based on the specific antagonism of the test compound to the typical syndrome produced by intraperitoneal injection of 0.6% aqueous acetic acid. The syndrome was characterized by intermittent contractions of the abdomen, twisting and turning of the trunk and extension of the hind legs. A group of 5 mice was used for each dose level. The test compound was administered subcutaneously 20 minutes before the injection of acetic acid. […] The ED50 value was calculated according to the Litchfield-Wilcoxon's method.

[3] = known, cf. U.S. Pat. No. 3,138,603; result in words; cited from earlier work
[4] = known, cf. U.S. Pat. No. 3,138,603; result in words; cited from earlier work; remark: listed apart in the source
[5] = Mus musculus, sc, read-out: ED50

Compound: 2'-Hydroxy-2-(β-ethylcarbonylethyl)-5,9-dimethyl-6,7-benzomorphan
- Abstinence syndrome [1]: -
- addiction in long term animal tests [1]: do not show any addiction
- physical dependency [1]: did not produce any physical dependency
- ED50 [2]: 7.0 mg/kg

Compound: CCOC(=O)CCN1CCC2(C)c3cc(O)ccc3CC1C2C (stereo not drawn) [2'-Hydroxy-2-(β-ethoxycarbonylethyl)-5,9-dimethyl-6,7-benzomorphan]
- Abstinence syndrome [1]: -
- addiction in long term animal tests [1]: do not show any addiction
- physical dependency [1]: did not produce any physical dependency
- ED50 [2, 5]: 16.1 mg/kg

Compound: CC1C2Cc3ccc(O)cc3C1(C)CCN2C (stereo not drawn) [2'-hydroxy-2,5,9-trimethyl-6,7-benzomorphan]
- Abstinence syndrome [1]: ++
- analgesic activity [3]: potent analgesic activity
- addiction liability [4]: show an addiction liability

Compound: CC(C)=CCN1CCC2(C)c3cc(O)ccc3CC1C2C (stereo not drawn) [Pentazocine, 2'-hydroxy-2-(3"-methyl-2"-butenyl)-5,9-dimethyl-6,7-benzomorphan, reference compound]
- ED50 [2, 5]: 17.5 mg/kg
